For test [1], the target named is T1, hSERT (Homo sapiens, UniProt P31645).
T1 construct: expressed in transfected cells; host or cells: HEK-293
Nature of the test: SERT radioligand binding assay ([125I]RTI-55, HEK-293 membranes). As to conditions: recombinant HEK-293 membranes. As for the experimental part:
(§1) Recombinant HEK-293 cells expressing either the hSERT, hDAT, or hNET proteins were harvested from T-175 flasks as follows. The medium was removed from the flasks and the cells rinsed with HBSS without Ca and without Mg. The cells were then incubated for 5-10 minutes in 10 mM Tris-Cl, pH 7.5, 5 mM EDTA before the cells were lifted with a combination of pipetting and scraping, as needed. The cell suspension was collected into centrifuge bottles and homogenized for 30 seconds with a Polytron homogenizer. The suspension was centrifuged for 30 minutes at 32,000×g, 4° C. The supernatant was decanted and the pellet resuspended and homogenized in 50 mM Tris-Cl, pH 7.5, 1 mM EDTA for 10 seconds. The suspension was then centrifuged again for 30 minutes at 32,000×g, 4° C. The supernatant was decanted and the pellet resuspended in 50 mM Tris-Cl, pH 7.5, 1 mM EDTA and briefly homogenized. […]
(§2) Compounds were dissolved in 100% DMSO at a concentration 100 times the desired highest assay concentration, serially diluted 1:3 in 100% DMSO, and 0.4 μl/well of each solution was dispensed to a Nunc polypropylene, round bottom, 384-well plate. […] The plates were air-dried overnight, 12 μl/well of MicroScint scintillation fluid added, and the plates counted in a Trilux.
The radioligand concentration chosen for each assay corresponds to the Kd concentration determined through saturation binding analysis for each assay.

The target of test [2] is T2, hDAT (Homo sapiens, UniProt Q01959).
T2 construct: expressed in transfected cells; host or cells: HEK-293
Nature of the test: DAT radioligand binding assay ([125I]RTI-55, HEK-293 membranes). The note with it: recombinant HEK-293 membranes. As to the method:
as §1, with “seconds.” for “seconds. The suspension was then centrifuged again for 30 minutes at 32,000×g, 4° C. The supernatant was decanted and the pellet resuspended in 50 mM Tris-Cl, pH 7.5, 1 mM EDTA and briefly homogenized.”
as §2
(§3) The raw data was normalized to percent inhibition using control wells defining 0% (DMSO only) and 100% (selective inhibitor) inhibition which were run on each plate. […] The radioligand concentration chosen for each assay corresponds to the Kd concentration determined through saturation binding analysis for each assay.

The test system of test [3] is SERT. Nature of the test: Ex vivo binding occupancy assay, SERT ([3H]citalopram, brain tissue). As to conditions: dose 1 mg/kg, time point 3 hour, ex vivo binding in brain tissue. The source says: The general procedure for brain tissue collection and transporter occupancy assessment is briefly described as follows. Mice were sacrificed by asphyxiation in CO2, rats by decapitation and dogs by IV injection of euthanasia solution. For mice and rats, after the brains were removed from the skull, the forebrain tissue (removal of the brainstem and cerebellum) was used for SERT, NET, and DAT occupancy assessment. In dogs, the striatum was dissected for DAT occupancy and the remaining forebrain tissue (without the striatum, brainstem, and cerebellum) was used for SERT and NET occupancy assessment. The brain tissues were frozen in chilled isopentane and stored at −80° C. until homogenization.
The brain tissues were thawed and then homogenized using a polytron homogenizer (Kinematica). Sample aliquots were frozen immediately and stored at −80° C. Protein content was measured for each sample using a Coomassie protein assay kit (Pierce).
On the day of ex vivo binding for occupancy assessment, frozen sample aliquots were thawed and needle homogenized, and 100 μg of the tissue was incubated for SERT, NET, and DAT binding under assay conditions summarized in Table 1. […] Radioligand was measured using a Wallac Microbeta liquid scintillation counter.
The specific binding was calculated by subtracting the value of the non-specific binding from that of the total binding in each sample. […]

Test [4] addresses T3, hNET (Homo sapiens, UniProt P23975).
T3 construct: expressed in transfected cells; host or cells: HEK-293
Nature of the test: NET radioligand binding assay ([3H]nisoxetine, HEK-293 membranes). As to conditions: recombinant HEK-293 membranes. As to the method:
as §1, with “seconds.” for “seconds. The suspension was then centrifuged again for 30 minutes at 32,000×g, 4° C. The supernatant was decanted and the pellet resuspended in 50 mM Tris-Cl, pH 7.5, 1 mM EDTA and briefly homogenized.”
Compounds were dissolved in 100% DMSO at a concentration 100 times the desired highest assay concentration, serially diluted 1:3 in 100% DMSO, and 1.0 μl/well of each solution was dispensed to a Nunc polypropylene, round bottom, 384-well plate. […] The plates were air-dried overnight, 12 μl/well of MicroScint scintillation fluid added, and the plates counted in a Trilux.
as §3

The structures appear in SMILES notation. Structures can show the parent of a compound that is named as a salt.

T1 sequence (P31645 whole entry): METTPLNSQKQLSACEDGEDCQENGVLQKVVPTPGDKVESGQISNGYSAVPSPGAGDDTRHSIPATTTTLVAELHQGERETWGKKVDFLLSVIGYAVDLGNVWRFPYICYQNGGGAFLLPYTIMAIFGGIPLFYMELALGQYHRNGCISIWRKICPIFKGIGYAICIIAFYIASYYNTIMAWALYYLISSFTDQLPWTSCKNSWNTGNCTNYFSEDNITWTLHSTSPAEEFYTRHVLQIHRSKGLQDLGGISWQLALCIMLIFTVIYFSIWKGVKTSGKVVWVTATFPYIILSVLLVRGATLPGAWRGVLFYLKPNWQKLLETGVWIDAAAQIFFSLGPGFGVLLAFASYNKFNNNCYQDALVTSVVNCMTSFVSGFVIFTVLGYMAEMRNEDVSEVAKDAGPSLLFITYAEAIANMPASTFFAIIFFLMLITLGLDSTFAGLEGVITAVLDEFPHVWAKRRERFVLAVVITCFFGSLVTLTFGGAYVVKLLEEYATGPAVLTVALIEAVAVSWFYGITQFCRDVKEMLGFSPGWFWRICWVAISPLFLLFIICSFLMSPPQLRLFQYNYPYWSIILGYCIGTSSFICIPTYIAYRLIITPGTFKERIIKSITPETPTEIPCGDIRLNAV
T3 sequence (P23975 whole entry): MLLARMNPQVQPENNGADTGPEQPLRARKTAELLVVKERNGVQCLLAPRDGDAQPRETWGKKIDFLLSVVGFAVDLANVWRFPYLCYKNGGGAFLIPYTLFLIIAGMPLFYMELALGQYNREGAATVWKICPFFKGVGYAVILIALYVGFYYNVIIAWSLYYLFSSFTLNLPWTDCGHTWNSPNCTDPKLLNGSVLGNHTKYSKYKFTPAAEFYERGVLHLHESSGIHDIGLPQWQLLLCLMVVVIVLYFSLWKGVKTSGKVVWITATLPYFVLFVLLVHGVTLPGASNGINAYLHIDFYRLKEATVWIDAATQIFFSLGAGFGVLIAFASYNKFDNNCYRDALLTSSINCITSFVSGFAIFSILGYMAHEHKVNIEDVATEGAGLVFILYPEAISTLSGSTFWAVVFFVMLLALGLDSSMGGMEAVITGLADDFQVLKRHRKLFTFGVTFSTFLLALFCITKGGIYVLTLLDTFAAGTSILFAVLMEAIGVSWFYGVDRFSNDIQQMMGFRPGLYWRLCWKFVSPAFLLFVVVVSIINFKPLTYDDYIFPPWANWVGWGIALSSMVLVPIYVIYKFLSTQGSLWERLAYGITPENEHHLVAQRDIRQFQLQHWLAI
T2 sequence (Q01959 whole entry): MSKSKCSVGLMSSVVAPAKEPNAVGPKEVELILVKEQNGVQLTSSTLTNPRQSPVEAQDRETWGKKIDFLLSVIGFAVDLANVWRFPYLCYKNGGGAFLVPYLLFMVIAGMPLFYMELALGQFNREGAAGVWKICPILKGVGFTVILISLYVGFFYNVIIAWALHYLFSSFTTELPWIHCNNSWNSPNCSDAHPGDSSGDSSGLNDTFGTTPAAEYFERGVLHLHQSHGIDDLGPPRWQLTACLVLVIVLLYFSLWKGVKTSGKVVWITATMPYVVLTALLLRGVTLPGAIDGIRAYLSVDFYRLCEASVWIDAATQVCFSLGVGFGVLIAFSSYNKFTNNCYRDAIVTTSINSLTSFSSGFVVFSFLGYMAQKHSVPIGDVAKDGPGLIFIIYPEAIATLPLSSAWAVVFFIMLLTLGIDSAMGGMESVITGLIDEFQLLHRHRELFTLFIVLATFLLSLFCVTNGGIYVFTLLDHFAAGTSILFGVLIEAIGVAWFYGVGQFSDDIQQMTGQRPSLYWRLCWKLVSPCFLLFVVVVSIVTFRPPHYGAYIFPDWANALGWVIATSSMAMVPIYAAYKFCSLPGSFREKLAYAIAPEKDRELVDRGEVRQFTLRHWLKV

By IC50 is commonly meant the point on the concentration scale where inhibition reaches its midpoint. As to `Clc1ccc(C2CNCc3cc(-c4ccc5ncnn5c4)ccc32)cc1Cl` (single isomer, unassigned; (-)) [Example 1 (−)-enantiomer, (−)-7-([1,2,4]triazolo[1,5-a]pyridin-6-yl)-4-(3,4-dichlorophenyl)-1,2,3,4-tetrahydroisoquinoline], the IC50 in test [1] turned out to be 4.2 nM; in test [2], 105 nM; in test [4] it was 4.8 nM. The “SERT Occupancy %” value in test [3] was 41%.
In the case of `Clc1ccc(C2CNCc3cc(-c4ccc5ncnn5c4)ccc32)cc1Cl` (single isomer, unassigned; enantiomer 7) [Example 1 (+)-enantiomer, 7-([1,2,4]triazolo[1,5-a]pyridin-6-yl)-4-(3,4-dichlorophenyl)-1,2,3,4-tetrahydroisoquinoline, L-tartrate salt], the IC50 turned out to be 1.8 nM in test [1], 30.8 nM in test [2] and 26 nM in test [4]. For the same molecule, the “SERT Occupancy %” value in test [3] (L-tartrate salt) was 75%.

The record behind these values is patent US8802696B2, “7-([1,2,4]triazolo[1,5-a]pyridin-6-yl)-4-(3,4-dichlorophenyl)-1,2,3,4-tetrahydroisoqu inoli and use thereof” (Albany Molecular Research, Inc., priority 2009, dated 2014).
